Here are results for four molecules from patent US11939294B1 (priority 2023, dated 2024).

The subject of series [1] is Mycobacterium tuberculosis H37Rv (susceptible; ATCC: 25177). Put plainly: Resazurin Microplate Assay (REMA), anti-tubercular activity, susceptible strain. Type of series: cell-based. The settings on record: 192 h, read-out: MIC (μg/mL) Susceptible (H37Rv), H37Rv, ATCC: 25177, 8 days incubation at 37° C. For orientation: Alamar Blue is a resazurin reagent that responds to reducing activity.

What is called melting point is the temperature of the solid-liquid transition. The molecule `COc1ccc(C(=O)C[n+]2cc(C)cc(C)c2)cc1.[Br-]` showed a melting point of 108 °C.
For `Cc1cc(C)c[n+](CC(=O)c2ccc(F)cc2)c1.[Br-]` [Compound 3d, 1-(2-(4-Fluorophenyl)-2-oxoethyl)-3,5-dimethylpyridin-1-ium bromide], the melting point is 123 °C. For the same molecule, the MIC in series [1] was approximately 8 µg/mL.
`Cc1cc(C)c[n+](CC(=O)c2ccc(Br)cc2)c1.[Br-]`: the melting point was 210 °C.
The molecule `Cc1cc(C)c[n+](CC(=O)c2ccc(Cl)cc2)c1.[Br-]` returned a melting point of 125 °C.
